Among the data in patent publication EP0666841B1, “SUCCINOYLAMINO HYDROXYETHYLAMINO SULFAMIC ACID DERIVATIVES USEFUL AS RETROVIRAL PROTEASE INHIBITORS” (G.D. SEARLE & CO., priority 1992, dated 1994) are inhibition and IC50 values, retold here.

The assay has as its target T1, HIV protease (Human immunodeficiency virus type 1 group M subtype B, UniProt P04585).
T1 construct: HIV protease is diluted in the assay buffer to a final enzyme concentration of 12.3 nanomolar, based on a molecular weight of 10,780
Kind of assay: HIV protease enzyme assay (fluorescence, peptide substrate). The assay is classed as biochemical. The settings on record: read-out: IC50 or % inhibition. From the text:
The compounds of the present invention are effective HIV protease inhibitors. Utilizing an enzyme assay as described below, the compounds set forth in the examples herein disclosed inhibited the HIV enzyme. The preferred compounds of the present invention and their calculated IC50 (inhibiting concentration 50%, i.e., the concentration at which the inhibitor compound reduces enzyme activity by 50%) values are shown in Table 17. The enzyme method is described below. The substrate is 2-Ile-Nle-Phe(p-NO2)-Gln-ArgNH2. The positive control is MVT-101 (Miller, M. et al, Science, 246, 1149 (1989)] The assay conditions are as follows: Assay buffer: 20 mM sodium phosphate, pH 6.4 20% glycerol 1 mM EDTA 1 mM DTT 0.1% CHAPS
The above described substrate is dissolved in DMSO, then diluted 10 fold in assay buffer. Final substrate concentration in the assay is 80 µM.
HIV protease is diluted in the assay buffer to a final enzyme concentration of 12.3 nanomolar, based on a molecular weight of 10,780.
The final concentration of DMSO is 14% and the final concentration of glycerol is 18%. The test compound is dissolved in DMSO and diluted in DMSO to 10x the test concentration; 10µl of the enzyme preparation is added, the materials mixed and then the mixture is incubated at ambient temperature for 15 minutes. The enzyme reaction is initiated by the addition of 40µl of substrate. The increase in fluorescence is monitored at 4 time points (0, 8, 16 and 24 minutes) at ambient temperature. Each assay is carried out in duplicate wells.

Broadly, the inhibition is the share of the control response that was lost under treatment. For the compound `CC(C)CN(C[C@@H](O)[C@H](Cc1ccccc1)NC(=O)OCc1ccccc1)S(=O)(=O)N1CCN(C)CC1` [D], the inhibition at 0.1 µM was found to be 29%.
The same measure, in the same setting: as for `CC(C)CN(C[C@@H](O)[C@H](Cc1ccccc1)NC(=O)OCc1ccccc1)S(=O)(=O)N1CCCC1` [F], the figure is 22%.
Consider `CN(C)S(=O)(=O)N(Cc1ccc(F)cc1)C[C@@H](O)[C@H](Cc1ccccc1)NC(=O)OCc1ccccc1` [B], for which the inhibition at 10 µM turned out to be 55%.
In the case of `CC(C)CN(C[C@@H](O)[C@H](Cc1ccccc1)NC(=O)OCc1ccccc1)S(=O)(=O)NC(C)C` [C], the inhibition at 1 µM was 59%.
As for `CC(C)(C)NS(=O)(=O)N(C[C@@H](O)[C@H](Cc1ccccc1)NC(=O)OCc1ccccc1)C1CCCCC1` [K], the inhibition at 1 µM was determined as 60%.
In the case of `CC(C)(C)NS(=O)(=O)N(Cc1ccccc1)C[C@@H](O)[C@H](Cc1ccccc1)NC(=O)OCc1ccccc1` [H], the inhibition at 10 µM was determined as 48%.
Turning to `CNS(=O)(=O)N(CC(C)C)C[C@@H](O)[C@H](Cc1ccccc1)NC(=O)OCc1ccccc1` [A], the inhibition at 0.1 µM was 29%.
For orientation: IC50 means the concentration needed to halve the response being measured. As for `CC(C)CN(C[C@@H](O)[C@H](Cc1ccccc1)NC(=O)OCc1ccccc1)S(=O)(=O)Nc1ccccc1` [E], the IC50 (IC50 values printed in nM) turned out to be 70 nM.
